Consider 2 compounds from patent US20130089570A1, “ORAL VACCINE CO[…] ANTIGEN AND A TOLL-LIKE RECEPTOR AGONIST” (Glaxo Smith Kline Biologicals S.A., priority 2010, published 2013).

Read-outs that look alike come from different tables or passages of the source. Marks after values point to notes of the source that are not given here.

For this experiment, the system named is A/Solomon Island virus (A/SI/3/2006). It counts as in vivo, BALB/c mice. As to conditions: for IgA concentration in mucosal samples GeoMean, BAL / IgA concentration in mucosal samples GeoMean, Feces / IgA concentration in mucosal samples GeoMean, Nasal Wash / IgA concentration in mucosal samples GeoMean, Saliva / IgA concentration in mucosal samples GeoMean, Vaginal Wash: days 0 and 14, two weeks after second immunization.

[1] abbreviates: Table 1 study, dose of Ag 14 μg.
The mark [2] stands for this setting: Table 2 study, A/SI/3/2006 7.5 μg, adjuvant 1 μg.

Consider `CCCCCCCCCCC[C@H](CC(=O)N[C@H]1[C@H](OC[C@H](NC(=O)C[C@@H](CCCCCCCCCCC)OC(=O)CCCCCCCCC)C(=O)O)O[C@H](CO)[C@@H](OP(=O)(O)O)[C@@H]1OC(=O)C[C@@H](CCCCCCCCCCC)OC(=O)CCCCCCCCC)OC(=O)CCCCCCCCC` [CRX527], for which, under “Table 1 study, dose of Ag 7 μg”, the “IgA concentration in mucosal samples GeoMean, BAL” value (“IgA concentration … BAL” for short) is 7.43*** ng/mL; the “IgA concentration in mucosal samples GeoMean, Feces” value (“IgA concentration … Feces” for short) is listed as 48.40*** ng/mL; the “IgA concentration in mucosal samples GeoMean, Nasal Wash” value (shortened to “IgA concentration … Nasal Wash”) was 11.88* ng/mL; the “IgA concentration in mucosal samples GeoMean, Saliva” value (“IgA concentration … Saliva” for short) is 7.53 ng/mL. Besides, the “IgA concentration in mucosal samples GeoMean, Vaginal Wash” value (“IgA concentration … Vaginal Wash” below) (Table 1 study, dose of Ag 7 μg) is 81.01*** ng/mL. For the same compound, under setting [1], the “IgA concentration … BAL” value is 3.67 ng/mL; the “IgA concentration … Feces” value is recorded as 75.71*** ng/mL; the “IgA concentration … Nasal Wash” value stood at 8.22 ng/mL; the “IgA concentration … Saliva” value is given as 5.13 ng/mL. The “IgA concentration … Vaginal Wash” value under setting [1] is on record as 120.80*** ng/mL. Moreover, under setting [2], the “IgA concentration … BAL” value was determined as 3.47 ng/mL; the “IgA concentration … Feces” value amounted to 8.68 ng/mL; the “IgA concentration … Nasal Wash” value was 3.50 ng/mL; the “IgA concentration … Saliva” value came out at 3.22 ng/mL. The “IgA concentration … Vaginal Wash” value under setting [2] is given as 7.05 ng/mL.
On to Flagellin, for which, under setting [2], the “IgA concentration … BAL” value is recorded as 4.04 ng/mL; the “IgA concentration … Feces” value amounted to 14.56 ng/mL; the “IgA concentration … Nasal Wash” value is 4.00 ng/mL; the “IgA concentration … Saliva” value was 2.69 ng/mL. Besides, the “IgA concentration … Vaginal Wash” value under setting [2] is listed as 9.93** ng/mL. The “IgA BAL levels compared to IM immunization” value (Table 2 study, Kruskal Wallis and Dunn's multiple comparison test) is recorded as “significantly higher”. The “IgA response in vaginal wash by adjuvantation” value (Table 2 study, vaginal wash) was “highly increased the IgA response”.
